# Measurements taken from US20030051262A1, “Animal models for neurodegenerative disease” (priority 1999, published 2003).
# Peptide text beside a SMILES is read from it.
# Legend:
# rat hippocampus = assay: Direct injection into rat hippocampus, histological effects (length of hippocampal cell layers destroyed); type: in vivo; conditions: for extent of hippocampal damage: 68 mM in a volume of 1 μl into hippocampus
# Description: AChE peptide was injected into rat hippocampus and subsequently the brains were examined under a light microscope. The hippocampus was-chosen as the most suitable brain structure in which to show effects of AChE peptide as it is very vulnerable to neurotoxins and damage from other causes such as ischaemia. Post mortem histological. examination or pre mortem brain scans reveal prominent decay of the hippocampus in Alzheimer brains.
# Male Wistar or Dark Agouti (DA) rats were anaesthetised with Avertin and injected with 0.5 μl of 2 mM AChE peptide (DA rats received 1 μl of 1 mM) in the right hippocampus. An equivalent control injection was made in the left hippocampus. After recovery from the anaesthetic and a few days in their home cages rats were deeply anaesthetised and transcardially perfused with formalin preservative, the brains removed and prepared for microscopical examination. Sections of 50 μm were cut on a sliding microtome and stained with cresyl violet to show the nerve cells. The amount of neural damage was estimated by counting the length of hippocampal cell layers destroyed (quantified in terms of microscope graticule units).
# A small number of injections were made into the hippocampus of DA rats with the reference neurotoxin NMDA (N-methyl D-aspartic acid) at an equivalent concentration to that of AChE peptide used above (1 μl of 1 mM).
# (§1) Since the concentration of NMDA used to produce experimental neural destruction (as a tool in experimental psychology to examine the function of a particular brain region) is much higher (typically 68 mM) a small number of rats were injected with this larger amount, in a volume of 1 μl, in comparison with an equivalent amount of AChE peptide.
# [1] = Post-operative body weight after injection into S/DB; type: in vivo, rat; conditions: 2 μl of 33 mM into S/DB, Wistar rats, weighed daily
# Description: (§2) The experimental group (n=6 rats) received an injection of AChE peptide into the medial septum/vertical limb of the diagonal band (S/DB). Control rats (n=6 rats) received an equal amount of the vehicle, water, in the same way, while another group (n=5 rats) received an injection of the reference neurotoxin NMDA at an equivalent dose to that of AChE peptide (2 μl of 33 mM). Each injection was given slowly over 15 minutes through a 34 gauge stainless steel injection needle coupled by polyethylene tubing to a 10 μl Hamilton syringe. Co-ordinates used on the stereotaxic instrument (Kopf) were 0.7 mm anterior to bregma, 1.0 mm lateral to midline and 6.5 mm from skull surface at bregma. The incisor bar was set at −0.5 mm for all rats, resulting in approximately a level skull surface between the bregma and lambda sutures. The arm of the stereotaxic instrument was angled at 10 degrees to vertical to avoid damage to the sagittal sinus.
# Post-operatively the rats were weighed every day. Approximately two weeks after operation they were again food restricted and tested for performance on the T-maze.
# [2] = tested on: medial septum/vertical limb of the diagonal band (S/DB); assay: Delayed non-matching to sample (DNMS) T-maze task after injection into S/DB; type: in vivo, rat; conditions: 2 μl of 33 mM into S/DB
# Excerpt: Wistar rats (175-200 g) were received from the suppliers (Harlan UK) and acclimated to the laboratory for three weeks before being trained on a delayed non-matching to sample (DNMS) task on an elevated wooden T-maze. In this task they are mildly food deprived and receive food pellets with enhanced flavour and nutritional content as rewards.
# The DNMS task capitalises on the rat's innate tendency to alternate which cross arm of the T-maze it runs along; this derives from its normal foraging behaviour, where returning to a place from which it has recently eaten all the food is unlikely to pay dividends.
# Each rat is placed at the start of the stem of the T-maze and allowed to run to retrieve a food pellet at the end of one cross arm. Access to the other cross arm is blocked. This block is then removed and the rat returned to the start. Normal rats choose to go to the opposite arm to that recently visited on this free choice part of the trial. After being allowed to consume their reward (if a correct choice was made) they are returned to their home cage and their cagemate is then tested in the same way. Typically a squad of ten rats is run in a “round robin’ fashion, so up to fifteen minutes intervenes between one trial and the next. Normal rats excel at this task once initial training (chiefly to familiarise them with the new smells on the maze and the elevated position off the floor) is complete.
# The rats in the present experiment were given forty trials on the T-maze, then divided into groups matched for performance (all were above 90% correct). They were returned to unlimited food for a few days before undergoing surgery under Avertin anaesthesia.
# The experimental group (n=6 rats) received an injection of AChE peptide into the medial septum/vertical limb of the diagonal band (S/DB). Control rats (n=6 rats) received an equal amount of the vehicle, water, in the same way, while another group (n=5 rats) received an injection of the reference neurotoxin NMDA at an equivalent dose to that of AChE peptide (2 μl of 33 mM). […]
# [3] = tested on: medial septum/vertical limb of the diagonal band (S/DB); assay: Locomotor activity cages after injection into S/DB; type: in vivo, rat; conditions: 2 μl of 33 mM into S/DB, two successive days
# Description: as §2
# After completion of T-maze testing rats were returned to a free feeding regimen before being tested on two successive days in standard locomotor activity cages. Each cage was equipped with two infrared beams to detect movement.
# [4] = tested on: medial septum/vertical limb of the diagonal band (S/DB); assay: Histology of septal region after injection into S/DB; type: in vivo, rat; conditions: for histological appearance of the septal area: 2 μl of 33 mM into S/DB, Example 2
# Description: as §2
# After a final weighing, rats were killed by stunning followed by decapitation. The hippocampus and cingulate/secondary motor cortex were rapidly removed and stored frozen at −80 degrees Celsius. The block of brain anterior to the hippocampus was placed in 30% sucrose formalin and left to fix for at least a week prior to sectioning on a microtome and staining with cresyl violet. Microscopical brain examination was subsequently performed as in earlier experiments.
# Wistar rats were anaesthetised and injected as described in Example 2, with one of the following. AChE peptide, the equivalent peptide from BuChE, a scrambled version of the AChE peptide: HSWRAEVFHKYWSM, NMDA and water as a control. The number of rats in each group was between four and five.
# Brain examination was performed as described in Example 2.
# [5] = tested on: nucleus basalis of Meynert (NBM); assay: Serial choice reaction task (attention) after injection into NBM; type: in vivo, rat; conditions: bilateral 2 μl of 16.5 mM into NBM, light stimulus 1.0 s
# Description: Testing for loss of cognitive function reminiscent of loss of such function associated with Alzheimer's Disease in humans was carried out using a serial choice reaction task, a preferred form of task for testing for attentional deficits, as described by Higgs et al. (Higgs, S., Deacon, R. M. J. & Rawlins, J. N. P., European Journal of Neuroscience (2000)12, 1781-1788).
# A rat testing cubicle with a retractable lever on the front wall was employed as illustrated in FIG. 11. The back wall was concave with three food magazines, one in each corner and one in the centre. A light was present within each corner magazine. Magazine entries were recorded by microswitches attached to panels covering the entrances. The entire apparatus was computer-controlled.
# Rats are trained to press the lever when it is presented. […] The rat will find a reward (a 45 mg food pellet) respectively in the left, right or centre magazine tray.
# A cohort of rats were trained on the attentional task (light stimulus duration 1.0 s). When performance was stable, they were divided into three matched groups, each with seven or more rats. Under deep anaesthesia, each rat was placed in a stereotaxic frame, with the incisor bar set at −3 mm to give a level head. Bilateral-injections, each of 2 μl, were made into the NBM area (see FIG. 13). The control group of rats received injections of water. […]
# [6] = tested on: choline acetyltransferase; assay: Cortical choline acetyltransferase (ChAT) level after NBM lesion; type: in vivo, rat; conditions: bilateral 2 μl of 16.5 mM into NBM
# Description: After a period of post-operative testing, the rats were terminally anaesthetised and perfused intracardially with ice cold saline. The brain was removed and a portion of cortex (including the frontal, parietal and temporal areas, but excluding visual and cingulate cortex) was removed from each hemisphere and frozen. The remaining brain was preserved in formalin and subsequently coronally sectioned and stained with cresyl violet. The position and extent of the lesions was then determined by microscopical examination.
# The frozen cortical tissue was used to determine the effectiveness of the NBM lesion. Using the method of Fonnum (J. Neurochem. (1975) 24, 407-409), the levels of the acetylcholine synthesising enzyme, choline acetyltransferase, (ChAT) were measured.
# Since a proportion of this enzyme is due to the cholinergic innervation from the NBM, a decrease of ChAT would corroborate visualisation of a lesion at the site of injection in the NBM itself.
# [7] = Body weight and condition after high-dose hippocampal injection; type: in vivo, rat; conditions: higher dose (68 mM, 1 μl) into hippocampus, one of two rats, 5 days after surgery
# Description: as §1
# One of the two rats given AChE peptide at this higher dose looked very sick 5 days after the surgery and was therefore deeply anaesthetised and the brain prepared for microscopy. […] The other rat survived 11 days until it was finally anaesthetised, but it too lost some weight. This supported informal observations from the earlier, low dose experiment that AChE peptide treated rats might lose more weight than is normal after such surgery.
# mice = assay: Injection of AChE peptide into mice; type: in vivo
SMILES,extent of hippocampal damage (rat hippocampus),"histological examination of hippocampal brain sections (rat hippocampus; DA rats, 1 μl of 1 mM into hippocampus)",post-operative weight loss and recovery [1],T-maze performance in subsequent trials ([2]; after first block of ten trials),T-maze performance with 45 second delay between sample and choice ([2]; delay about 45 s),"T-maze performance, twenty massed trials ([2]; massed trials)","locomotor activity (ANOVA, group effect) [3]",histological appearance of the septal area [4],proportion of correct lever-light trials [5],cholinergic loss in the cortex as measured by HPLC ChAT level [6] [%],"mean units of damage (length of hippocampal cell layers destroyed) (rat hippocampus; Wistar rats, 0.5 μl of 2 mM in right hippocampus, P=0.008 vs control side) [units]","units of damage (length of hippocampal cell layers destroyed, microscope graticule units) (rat hippocampus; most symmetrically injected DA rat, 1 μl of 1 mM in right hippocampus) [units]",body weight after surgery [7],"tissue loss in the medial septal region ([4]; Example 3, Wistar rats injected as in Example 2)",lesion size relative to NMDA ([4]; S/DB region),"time for lesion to form after introduction into S/DB ([4]; S/DB region, time course by MRI)",neurotoxic effects in mice (mice)
"CN[C@H](CC(=O)O)C(=O)O [NMDA, N-methyl D-aspartic acid]",more widespread,small areas of neural damage,lost more weight than controls,returned to control levels,non-significant decrease,little effect,not significantly different,only small effects,didn't produce a significant reduction,12.1,–,–,–,–,–,–,–
"CSCC[C@H](NC(=O)[C@H](Cc1ccc(O)cc1)NC(=O)[C@H](CO)NC(=O)[C@H](CO)NC(=O)[C@H](Cc1c[nH]c2ccccc12)NC(=O)[C@H](CCCNC(=N)N)NC(=O)[C@H](Cc1c[nH]cn1)NC(=O)[C@H](Cc1ccccc1)NC(=O)[C@H](CCC(=O)O)NC(=O)[C@H](C)N)C(=O)N[C@H](C(=O)N[C@@H](Cc1c[nH]cn1)C(=O)N[C@@H](Cc1c[nH]c2ccccc12)C(=O)N[C@@H](CCCCN)C(=O)O)C(C)C [AChE peptide, AEFHRWSSYMVHWK] (H-AEFHRWSSYMVHWK-OH)",local hippocampal damage,–,statistically significantly slower than either controls or NMDA rats to recover their weight,–,–,–,–,striking damage,–,–,155.3,119,Severe body weight loss,Significant tissue loss,an order of magnitude larger,less than an hour,Neurotoxic effects have also been observed
